# Source: patent US5470883A (priority 1994, dated 1995)
# Counter-ions that a name gives are not always drawn. Like-named read-outs stand apart in the source and are kept apart here.
# Tests used:
# [1] = tested on: estrogen-dependent breast cancer cell cultures; details: cited from earlier work
# [2] = humans; cited from earlier work
# [3] = mild to moderate renal failure; cited from earlier work
# [4] = 100 to 200 times the recommended daily dose; cited from earlier work
# breast cancer = details: cited from earlier work
# [5] = tested on: mammary carcinoma in rats induced by DMBA; details: cited from earlier work
# [6] = tested on: epinephrine vasoconstriction, central artery of the rabbit ear; experiment: Transcutaneous oxygen monitor assessment of distal peripheral oxygen tension after epinephrine injection around the central artery of the rabbit ear; format: in vivo, New Zealand adult white rabbits; details: for effect of pretreatment on epinephrine-induced fall in peripheral blood flow / vasoconstriction: pretreatment two days, then epinephrine, estradiol 0.1 mg/kg/day, tamoxifen 2.0 mg/kg/day
# Procedure: A study utilizing 18 New Zealand adult white rabbits was performed. […] This was injected through a 27 gauge needle directly surrounding the central artery of the rabbit ear. Distally peripheral tissue oxygen tension was assessed utilizing a precalibrated transcutaneous oxygen monitor. Measurements were taken prior to injection to maintenance of a steady state. If a steady state was not reached the experiment was discontinued and retried at a later time. Post-injection measurements were taken until the return to baseline levels or up to two hours post-injection. Measurements were taken at five minute intervals preinjection and at three minute intervals post-injection. Control injections utilized 0.1 cc. of intravenous saline solution.
# In the second phase, six rabbits were used. The animals were pretreated with intravenous injections of estradiol (0.1 mg/kg/day) for two days.
# In phase three, animals from the second group were treated with estradiol and tamoxifen was added (2.0 mg/kg/day) for two days after allowing three weeks for the original estradiol to wash out. Another group of six animals was pretreated with tamoxifen alone (2.0 mg/kg/day) for two days.
# [7] = cited from earlier work
# perfused rat mesentary = details: cited from earlier work
# renal cortical necrosis = details: induced by estrogen plus vasopression; cited from earlier work
# [8] = tested on: tumor cultures without estrogen receptors; details: cited from earlier work
# [9] = single oral dose approximately 0.3 mg/kg
smiles,measurement,setting,value
"CC/C(=C(\c1ccccc1)c1ccc(OCCN(C)C)cc1)c1ccccc1 [tamoxifen citrate, (Z)2-[4-(1,2-diphenyl-1-butenyl)phenoxy]-N, N-dimethylethanamine 2-hydroxy-1,2,3-propranetricarboxylate (1:1)]",cell reproduction,[1],inhibit cell reproduction
same,overdose cases,[2],no cases of tamoxifen citrate overdose have been reported in humans
same,dose adjustment in renal failure,[3],dose adjustments are not needed in mild to moderate renal failure
same,overdose toxicity,[4],respiratory difficulties and convulsions
same,anti-tumor effect at higher dose,"breast cancer; 40 mg per day, metastatic breast cancer to the lung",higher anti-tumor effect
same,improvement at higher daily doses,breast cancer; 80 mg daily,have not generally resulted in greater improvement
same,delay of recurrence,"breast cancer; following total mastectomy and axillary dissection or segmental mastectomy, axillary dissection, and breast radiation, axillary node-negative breast cancer",effective in delaying the reoccurence
same,delay of recurrence,"breast cancer; following total mastectomy and axillary dissection, post-menopausal women",effective in delaying reoccurence
same,frequency of tumor development,[5]; administered with DMBA,decreases the frequency of tumor development
same,effect on DMBA-induced mammary carcinoma,[5]; rats,inhibit or reverse mammary carcinoma in rats
same,effect of pretreatment on epinephrine-induced fall in peripheral blood flow / vasoconstriction,[6],completely reversed the vasoconstrictive effects of epinephrine
same,effect of pretreatment on epinephrine-induced fall in peripheral blood flow / vasoconstriction,[6]; listed as tamoxifen (Nolvadex),completely inhibited
same,"unchanged drug and hydroxylated metabolites, share of total excreted",[7]; excreted mainly as conjugates,30%
same,distribution half life,"[7]; human, in vivo",7 to 14 h
same,elimination half-life,"[7]; human, in vivo",greater than 7 days
same,excretion in urine,[7]; in vivo,only small amounts are excreted in the urine
same,metabolism,[7]; in vivo,metabolised in the liver
same,absorption from the gastrointestinal tract,[7]; oral,well-absorbed from the gastrointestinal tract
same,excretion of radioactivity in the feces,"[7]; radiolabeled tamoxifen citrate, person",most of the radioactivity is slowly excreted in the feces with only small amounts appearing in the urine
same,initial half-life,[7]; [9],7 to 14 h
same,peak blood level of total radioactivity,[7]; [9],0.06-0.14 micrograms/mL
same,"secondary peaks, time",[7]; [9],four
same,time of peak blood level of total radioactivity,[7]; [9],4 to 7 h
same,calcium antagonism,perfused rat mesentary,calcium antagonist in perfused rat mesentary
same,effect on development of renal cortical necrosis,renal cortical necrosis,have an effect on the development of renal cortical necrosis
same,effect in tumor cultures,[8],no significant effect
CNC[C@H](O)c1ccc(O)c(O)c1 [epinephrine],"decreased blood flow, % of the preinjection level","[6]; epinephrine 0.1 cc, 1:50,000",50%
same,tissue necrosis,"[6]; epinephrine 0.1 cc, 1:50,000",In no case was there any tissue necrosis
C[C@]12CC[C@@H]3c4ccc(O)cc4CC[C@H]3[C@@H]1CC[C@@H]2O [estradiol],effect of pretreatment on epinephrine-induced fall in peripheral blood flow / vasoconstriction,[6],statistically similar fall in the peripheral blood flow as compared to those animals treated with epinephrine alone
